From patent US20250197425A1, “2,6,9-TRISUBSTITUTED PURINES” (ASTRAZENECA AB, priority 2022, published 2025) come the findings set out here.

The subject of data set [1] is POLR2A Ser2 phosphorylation (CDK9). Description: POLR2A Ser2 phosphorylation imaging assay in MCF-7 cells. It counts as cell-based. The note with it: Homo sapiens, MCF7, 2 h, read-out: POLR2A Ser2 phosphorylation IC50. Here is the method: Compounds were tested to assess their effect on CDK9 activity in a cellular context. […] During the cell cycle, CDK9 is a component of a multiprotein complex that phosphorylates POLR2A Ser2 which results in transcription elongation.
[…] were fixed by addition of 40 μL/well of 8% paraformaldehyde and incubated for 10 minutes at room temperature. The plates were washed three times with 50 μL/well PBS using a Biotek EL406 plate washer and then permeabilized for 10 minutes at room temperature in 0.3% Triton X100 in PBS. After washing as before, the plates were blocked using 30 μL/well of 2% BSA (w/v) in PBS-T for over 30 minutes at room temperature. […] After washing in PBS as before, leaving each well in 40 μL of PBS, the plates were sealed and imaged on a Cell Insight imaging system (Thermo) with a 10× objective and 2 fields of view per well. POLR2A Ser2levels were normalized to controls and the IC50 values of test compounds determined using Genedata Screener software.

The test system of another data set is MCF-7 cells. Description: Cellular proliferation EdU assay, MCF-7. In kind it is cell-based. The note with it: Homo sapiens, MCF7, 48 h, EdU assay, two days; read-out: MCF-7 IC50. Here is the method: (§1) Compounds were tested to assess inhibition of cellular proliferation in the breast cancer cell line MCF-7 and the CCNE1-amplified ovarian cell line OVCAR3.
(§2) MCF-7 and OVCAR3 cells in RPMI supplemented with 10% Fetal bovine serum were seeded into 384-well plates (Greiner, Kremsmunster, Austria; 781091), 30 μL/well, using a WellMate. The MCF7 and OVCAR3 cells were seeded at 800 and 1200 cells/well, respectively. Test compounds were added to the wells using an Echo 555 liquid handler and the plates were placed in incubator maintained at 37° C. and 5% CO2 and incubated for two days. On Day 2, an EdU assay was performed following the manufacturer's protocol (Thermo Fisher, C10351). The cells were read on an Acumen eX3 instrument. The IC50 values of test compounds were determined in Genedata by assessing the ratio of signal intensity at 488 nm to the area of signal at 405 nm.

A further data set deals with OVCAR3 cells. Description: Cellular proliferation EdU assay, OVCAR3. It counts as cell-based, human. The settings on record: Homo sapiens, OVCAR-3, 48 h, EdU assay, two days; read-out: OVCAR3 IC50. Here is the method:
as §1, §2

Data set [2] can be described thus: Aqueous thermodynamic solubility, shake-flask. The note with it: aqueous phosphate buffer, 25 °C, pH 7.4, aqueous buffer, thermodynamic from solid, phosphate buffer 0.1 M, pH 7.4, 24 hours. It counts as physicochemical. Here is the method: The DMSO was evaporated and the dried compounds were equilibrated in glass vials in aqueous phosphate buffer (0.1 M, pH 7.4) for 24 hours at 25° C. under constant stirring. The portion with the dissolved compound was then separated from the remainder through a double centrifugation with a tip wash in between to ensure that no residues of the dried compound were interfering. The solutions were diluted with purified water before quantification using UPLC/MS/MS.

Converted amounts (≈) assume the structure as drawn. Read-outs that look alike come from different tables or passages of the source. Where only a bound is given, the exact number is not on record here.

`CCNS(=O)(=O)N1CC[C@H](Nc2nc(N[C@H](CC)[C@@H](C)O)nc3c2ncn3CC)C1` (mixture of isomers) [Example 13, (S)—N-ethyl-3-((9-ethyl-2-(((2R,3R)-2-hydroxypentan-3-yl)amino)-9H-purin-6-yl)amino)pyrrolidine-1-sulfonamide]: the 50% inhibitory concentration (IC50) is above 30000 nM in data set [1], 490 nM in the data set with MCF-7 cells and 202 nM in the data set on OVCAR3 cells.
`CC[C@H](Nc1nc(N[C@H]2CCN(S(=O)(=O)NCC(F)F)C2)c2ncn(CC)c2n1)[C@@H](C)O` [Example 5, (S)—N-(2,2-difluoroethyl)-3-((9-ethyl-2-(((2R,3S)-2-hydroxypentan-3-yl)amino)-9H-purin-6-yl)amino)pyrrolidine-1-sulfonamide]: the concentration for half-maximal inhibition (IC50) in data set [1] (MCF-7 cells, 2 hours) is above 30000 nM; in the data set with MCF-7 cells it was 917 nM; in the data set on OVCAR3 cells, 154 nM. This molecule displayed a solubility at 24 h in data set [2] above 1000 µM.
Consider `CCNS(=O)(=O)N1CC[C@H](Nc2nc(N[C@@H](CC)[C@H](C)O)nc3c2ncn3CC)C1` [Example 8, (S)—N-ethyl-3-((9-ethyl-2-(((2S,3S)-2-hydroxypentan-3-yl)amino)-9H-purin-6-yl)amino)pyrrolidine-1-sulfonamide], for which the IC50 in data set [1] was above 30000 nM; in the data set with MCF-7 cells it was 4770 nM; in the data set on OVCAR3 cells, 1580 nM.
For `CCNS(=O)(=O)N1CC[C@H](Nc2nc(N[C@H](CC)[C@H](C)O)nc3c2ncn3CC)C1` [Example 11, (S)—N-ethyl-3-((9-ethyl-2-(((2S,3R)-2-hydroxypentan-3-yl)amino)-9H-purin-6-yl)amino)pyrrolidine-1-sulfonamide], in that order: above 30000 nM, 3300 nM and 1400 nM.
Consider `CC[C@H](Nc1nc(N[C@H]2CCN(S(=O)(=O)N[C@@H]3CCOC3)C2)c2ncn(CC)c2n1)[C@@H](C)O` [Example 18, (S)-3-((9-ethyl-2-(((2R,3S)-2-hydroxypentan-3-yl)amino)-9H-purin-6-yl)amino)-N—((R)-tetrahydrofuran-3-yl)pyrrolidine-1-sulfonamide], for which the 50% inhibitory concentration (IC50) in data set [1] (MCF-7 cells, 2 hours) is 23600 nM; with OVCAR3 cells, 169 nM. This molecule yielded a solubility at 24 h in data set [2] of 726 µM (≈ 350 µg/mL).
In the case of `CC[C@H](Nc1nc(N[C@H]2CCN(S(=O)(=O)N[C@H]3CCOC3)C2)c2ncn(CC)c2n1)[C@@H](C)O` [Example 22, (S)-3-((9-ethyl-2-(((2R,3S)-2-hydroxypentan-3-yl)amino)-9H-purin-6-yl)amino)-N—((S)-tetrahydrofuran-3-yl)pyrrolidine-1-sulfonamide], the half-inhibitory concentration (IC50) was above 30000 nM in data set [1] (MCF-7 cells, 2 hours); 1440 nM in the data set with MCF-7 cells; 298 nM in the data set with OVCAR3 cells. Also, in data set [2], the solubility at 24 h was above 1000 µM.
Regarding `CC[C@H](Nc1nc(N[C@H]2CCN(S(=O)(=O)N3CC(F)C3)C2)c2ncn(CC)c2n1)[C@@H](C)O` [Example 24, (2R,3S)-3-((9-ethyl-6-(((S)-1-((3-fluoroazetidin-1-yl)sulfonyl)pyrrolidin-3-yl)amino)-9H-purin-2-yl)amino)pentan-2-ol], the concentration for half-maximal inhibition (IC50) was above 30000 nM in data set [1] (MCF-7 cells, 2 hours); 2930 nM with MCF-7 cells; 856 nM with OVCAR3 cells. In addition, the solubility at 24 h in data set [2] was determined as 466 µM (≈ 219 µg/mL).

One may read the IC50 as the midpoint of a concentration-inhibition curve. For orientation: solubility means how much of the substance goes into solution per volume. Low values mean a poorly soluble substance, high ones a readily soluble substance.
